Columns and labels:
Format in all cases: in vivo
[1] = test system: Abutilon theophrasti; experiment: Pre-emergence herbicidal action, greenhouse, 320 g/ha; conditions: application rate 320 g/ha, scored visually after about 3 weeks vs untreated controls
Source text: (§1) Seeds of monocotyledonous and dicotyledonous weed plants and crop plants were placed in plastic or organic planting pots and covered with soil. The compounds of the invention, formulated in the form of wettable powders (WP) or as emulsion concentrates (EC), were then applied to the surface of the covering soil as aqueous suspension or emulsion with addition of 0.5% additive at a water application rate equivalent to […]. After the treatment, the pots were placed in a greenhouse and kept under good growth conditions for the test plants. After about 3 weeks, the effect of the preparations is scored visually in comparison with untreated controls as percentages. For example, 100% activity=the plants have died, 0% activity=like control plants. Tables B1 to B14 below show the effects of selected compounds of the general formula (I) according to Tables I.1 to I.150 on various harmful plants and at an application rate corresponding to 320 g/ha, which were obtained by the experimental procedure mentioned above.

[2] = test system: Alopecurus myosuroides; experiment: as above; conditions: application rate 320 g/ha, scored visually after about 3 weeks vs untreated controls
Source text: as §1

[3] = test system: Amaranthus retroflexus; experiment: as above; conditions: application rate 320 g/ha, scored visually after about 3 weeks vs untreated controls
Source text: as §1

[4] = test system: Avena fatua; experiment: as above; conditions: application rate 320 g/ha, scored visually after about 3 weeks vs untreated controls
Source text: as §1

[5] = test system: Digitaria sanguinalis; experiment: as above; conditions: application rate 320 g/ha, Table B9
Source text: as §1

[6] = test system: Hordeum murinum; experiment: as above; conditions: application rate 320 g/ha, Table B14
Source text: as §1

[7] = test system: Matricaria inodora; experiment: as above; conditions: application rate 320 g/ha, scored visually after about 3 weeks vs untreated controls
Source text: as §1

[8] = test system: Pharbitis purpurea; experiment: as above; conditions: application rate 320 g/ha, Table B12
Source text: as §1

[9] = test system: Polygonum convolvulus; experiment: as above; conditions: application rate 320 g/ha, scored visually after about 3 weeks vs untreated controls
Source text: as §1

[10] = test system: Setaria viridis; experiment: as above; conditions: application rate 320 g/ha, Table B11
Source text: as §1

[11] = test system: Stellaria media; experiment: as above; conditions: application rate 320 g/ha, scored visually after about 3 weeks vs untreated controls
Source text: as §1

[12] = test system: Viola tricolor; experiment: as above; conditions: application rate 320 g/ha, Table B8
Source text: as §1

[13] = test system: Amaranthus retroflexus; experiment: Post-emergence herbicidal action, greenhouse, 320 g/ha; conditions: application rate 320 g/ha, rated visually after about 3 weeks vs untreated controls
Protocol: (§2) Seeds of monocotyledonous and dicotyledonous weeds and crop plants were placed in sandy loam in plastic or wood-fiber pots, covered with soil and cultivated in a greenhouse under controlled growth conditions. 2 to 3 weeks after sowing, the test plants were treated at the one-leaf stage. The compounds of the invention, formulated in the form of wettable powders (WP) or as emulsion concentrates (EC), were then sprayed onto the green parts of the plants as aqueous suspension or emulsion with addition of 0.5% additive at a water application rate of […] (converted). After the test plants had been kept in the greenhouse under optimum growth conditions for about 3 weeks, the activity of the preparations was rated visually in comparison to untreated controls. For example, 100% activity=the plants have died, 0% activity=like control plants. Tables A1 to A14 below show the effects of selected compounds of the general formula (I) according to Tables 1.1 to 1.150 on various harmful plants and at an application rate corresponding to 320 g/ha, which were obtained by the experimental procedure mentioned above.

[14] = test system: Setaria viridis; experiment: as above; conditions: application rate 320 g/ha, rated visually after about 3 weeks vs untreated controls
Protocol: as §2

[15] = test system: Stellaria media; experiment: as above; conditions: application rate 320 g/ha, rated visually after about 3 weeks vs untreated controls
Protocol: as §2

[16] = test system: Viola tricolor; experiment: as above; conditions: application rate 320 g/ha, rated visually after about 3 weeks vs untreated controls
Protocol: as §2

[17] = test system: Veronica persica; experiment: Pre-emergence herbicidal action, greenhouse, 320 g/ha; conditions: application rate 320 g/ha, Table B13
Source text: as §1

[18] = test system: Amaranthus retroflexus; experiment: Herbicidal post-emergence action (Part 2), 1280 g/ha; conditions: application rate 1280 g/ha, rated visually after about 3 weeks, Table C5
Protocol: (§3) Seeds of mono- and dicotyledonous weed plants were placed in plastic pots in sandy loam soil (doubly sown with in each case one species of mono- or dicotyledonous weed plants per pot), covered with soil and cultivated in a greenhouse under controlled growth conditions. 2 to 3 weeks after sowing, the test plants were treated at the one-leaf stage. The compounds of the invention, formulated in the form of wettable powders (WP) or as emulsion concentrates (EC), were applied onto the green parts of the plants as aqueous suspension or emulsion with addition of 0.5% additive at a water application rate of 600 liters per hectare (converted). After the test plants had been kept in the greenhouse under optimum growth conditions for about 3 weeks, the activity of the preparations was rated visually in comparison to untreated controls. For example, 100% activity=the plants have died, 0% activity=like control plants. Tables C1 to C7 below show the effects of selected compounds of the general formula (I) according to Tables 1.1 to 1.150 on various harmful plants and at an application rate corresponding to 1280 g/ha, which were obtained by the experimental procedure mentioned above.

[19] = test system: Matricaria inodora; experiment: as above; conditions: application rate 1280 g/ha, rated visually after about 3 weeks, Table C6
Protocol: as §3

[20] = test system: Poa annua; experiment: as above; conditions: application rate 1280 g/ha, rated visually after about 3 weeks, Table C2
Protocol: as §3

[21] = test system: Stellaria media; experiment: as above; conditions: application rate 1280 g/ha, rated visually after about 3 weeks, Table C7
Protocol: as §3

[22] = test system: Abutilon theophrasti; experiment: Herbicidal pre-emergence action (Part 2), 1280 g/ha; conditions: application rate 1280 g/ha, scored visually after about 3 weeks, Table D5
Source text: (§4) Seeds of mono- and dicotyledonous weed plants were placed in plastic pots in sandy loam soil (doubly sown with in each case one species of mono- or dicotyledonous weed plants per pot) and covered with soil. The compounds of the invention, formulated in the form of wettable powders (WP) or as emulsion concentrates (EC), were then applied onto the surface of the covering soil as aqueous suspension or emulsion with addition of 0.5% additive at a water application rate of 600 liters per hectare (converted). After the treatment, the pots were placed in a greenhouse and kept under good growth conditions for the test plants. After about 3 weeks, the effect of the preparations was scored visually in comparison with untreated controls as percentages. For example, 100% activity=the plants have died, 0% activity=like control plants. Tables D1 to D8 below show the effects of selected compounds of the general formula (I) according to Tables 1.1 to 1.150 on various harmful plants and at an application rate corresponding to 1280 g/ha, which were obtained by the experimental procedure mentioned above.

[23] = test system: Amaranthus retroflexus; experiment: as above; conditions: application rate 1280 g/ha, scored visually after about 3 weeks, Table D6
Source text: as §4

[24] = test system: Echinochloa crus-galli; experiment: as above; conditions: application rate 1280 g/ha, scored visually after about 3 weeks, Table D1
Source text: as §4

[25] = test system: Matricaria inodora; experiment: as above; conditions: application rate 1280 g/ha, scored visually after about 3 weeks, Table D7
Source text: as §4

[26] = test system: Poa annua; experiment: as above; conditions: application rate 1280 g/ha, scored visually after about 3 weeks, Table D3
Source text: as §4

[27] = test system: Setaria viridis; experiment: as above; conditions: application rate 1280 g/ha, scored visually after about 3 weeks, Table D4
Source text: as §4

[28] = test system: Stellaria media; experiment: as above; conditions: application rate 1280 g/ha, scored visually after about 3 weeks, Table D8
Source text: as §4

| Structure (SMILES) | Abutilon theophrasti (efficacy in %) [1] [%] | Alopecurus myosuroides (efficacy in %) [2] [%] | Amaranthus retroflexus (efficacy in %) [3] [%] | Avena fatua (efficacy in %) [4] [%] | Digitaria sanguinalis (efficacy in %) [5] [%] | Matricaria inodora (efficacy in %) [7] [%] | Pharbitis purpurea (efficacy in %) [8] [%] | Polygonum convolvulus (efficacy in %) [9] [%] | Setaria viridis (efficacy in %) [10] [%] | Stellaria media (efficacy in %) [11] [%] | Viola tricolor (efficacy in %) [12] [%] | Amaranthus retroflexus (efficacy in %) [13] [%] | Veronica persica (efficacy in %) [17] [%] | Amaranthus retroflexus [18] [%] | Poa Annua [20] [%] | Amaranthus retroflexus [23] [%] | Matricaria inodora [25] [%] | Poa Annua [26] [%] | also measured |
| --- | --- | --- | --- | --- | --- | --- | --- | --- | --- | --- | --- | --- | --- | --- | --- | --- | --- | --- | --- |
| CN1CCC(O)N(c2noc(C(C)(C)C)c2F)C1=O (stereo not shown) [I.1-206] | 90 | 80 | 90 | 80 | 100 | 100 | 80 | 90 | 90 | 100 | 100 |  |  |  |  |  |  |  | Hordeum murinum (efficacy in %) [6]: 80% |
| CN1CCC(O)N(c2cc(C(F)(F)F)c(Cl)cn2)C1=O (stereo not shown) [I.1-451] |  |  | 90 |  | 90 | 100 |  | 90 | 90 | 100 | 100 | 100 |  |  |  |  |  |  | Setaria viridis (efficacy in %) [14]: 80%; Stellaria media (efficacy in %) [15]: 100%; Viola tricolor (efficacy in %) [16]: 100% |
| CN1CCC(O)N(c2cc(C(F)(F)F)c(Br)cn2)C1=O (stereo not shown) [I.1-464] | 100 | 80 | 100 | 80 | 100 | 100 | 100 | 100 | 100 | 100 | 100 | 100 | 100 |  |  |  |  |  | Stellaria media (efficacy in %) [15]: 90%; Viola tricolor (efficacy in %) [16]: 100% |
| CN1CCC(O)N(c2cc(C(F)(F)F)ncn2)C1=O (stereo not shown) [I.1-506] | 80 | 90 | 90 | 80 | 100 | 100 | 100 | 100 | 100 | 100 | 100 | 100 | 80 |  |  |  |  |  | Setaria viridis (efficacy in %) [14]: 100% |
| CC(=O)OC1CCN(C)C(=O)N1c1cc(C(C)(C)C)no1 (stereo not shown) [I.2-290, 3-(3-tert-Butyl-1,2-oxazol-5-yl)-1-methyl-2-oxohexahydropyrimidin-4-yl Acetate] |  |  |  |  |  |  |  |  |  |  |  |  |  | 100 | 90 | 100 | 100 | 100 | Matricaria inodora [19]: 90%; Stellaria media [21]: 100%; Abutilon theophrasti [22]: 100%; Echinochloa crus-galli [24]: 90%; Setaria viridis [27]: 90%; Stellaria media [28]: 100% |
| CC(=O)OC1CCN(C)C(=O)N1C1=NOC(C)(C)C1 (stereo not shown) [I.2-709] | 80 | 90 |  |  | 90 | 100 | 100 | 100 |  | 100 | 100 |  | 100 |  |  |  |  |  |  |
| CCCC(=O)OC1N(c2cc(C(C)(C)C)on2)C(=O)N(C)CC1(C)C (stereo not shown) [I.66-162] |  |  |  |  |  |  |  |  |  |  |  |  |  | 100 | 90 | 90 | 100 | 100 | Abutilon theophrasti [22]: 100%; Echinochloa crus-galli [24]: 90% |
| CC(=O)OC1N(c2cc(C(C)(C)C)on2)C(=O)N(C)CC12CCC2 (stereo not shown) [I.82-162] |  |  |  |  |  |  |  |  |  |  |  |  |  | 100 | 90 | 100 | 100 | 100 | Stellaria media [28]: 90% |
